Reference: ChEMBL document CHEMBL2311347, “The discovery of fused oxadiazepines as gamma secretase modulators for treatment of Alzheimer's disease” (Bioorg Med Chem Lett, 2013)

Experiments:
Rattus norvegicus [1] = test: Antialzheimer's disease activity in rat assessed as reduction in Abeta42 level at 10 mg/kg, po measured after 3 hrs post dose; type: functional
[2] = molecular target: Gamma-secretase (Homo sapiens) (UniProt Q96BI3+Q9NZ42+Q8WW43+P49768+Q92542+P49810); test: Inhibition of gamma secretase (unknown origin) assessed as ratio of Abeta to Abeta42 level; type: protein-complex assay
hERG = hERG (Homo sapiens, UniProt Q12809); test: Inhibition of human ERG at 10 uM
Gamma-secretase = test: Inhibition of gamma secretase (unknown origin) assessed as reduction of Abeta42 production; type: protein-complex assay, Homo sapiens
Cytochrome P450 2C9 = Cytochrome P450 2C9 (Homo sapiens, UniProt P11712); test: Inhibition of CYP2C9 (unknown origin); type: ADME
Cytochrome P450 3A4 = Cytochrome P450 3A4 (Homo sapiens, UniProt P08684); test: Inhibition of CYP3A4 (unknown origin); type: ADME
[3] = molecular target: T1, Nuclear receptor subfamily 1 group I member 2 (Homo sapiens, UniProt O75469); test: Activation of PXR (unknown origin) assessed as induction of CYP2B1/2 expression up to 30 uM relative to untreated control; type: ADME
T1 sequence (O75469 whole entry): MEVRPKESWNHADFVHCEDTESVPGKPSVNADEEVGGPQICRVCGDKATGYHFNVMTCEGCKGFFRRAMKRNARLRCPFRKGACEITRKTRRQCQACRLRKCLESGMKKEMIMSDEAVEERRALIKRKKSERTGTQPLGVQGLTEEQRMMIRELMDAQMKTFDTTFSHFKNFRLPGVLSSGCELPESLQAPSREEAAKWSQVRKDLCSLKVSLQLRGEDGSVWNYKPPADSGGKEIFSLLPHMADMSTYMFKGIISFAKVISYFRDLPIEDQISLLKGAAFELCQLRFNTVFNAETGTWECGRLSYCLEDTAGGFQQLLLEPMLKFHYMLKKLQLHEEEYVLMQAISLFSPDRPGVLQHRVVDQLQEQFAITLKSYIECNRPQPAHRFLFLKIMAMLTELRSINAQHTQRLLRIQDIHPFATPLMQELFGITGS

Rattus norvegicus [4] = test: Antialzheimer's disease activity in rat assessed as reduction in Abeta42 level at 30 mg/kg, po measured after 3 hrs post dose; type: functional
[5] = AUC in rat at 10 mg/kg, po measured after 6 hrs post dose; type: ADME, organism-based; set-up: time < 6 hr, dose 10 mg/kg, route oral; settings: plasma
[6] = molecular target: T1, Nuclear receptor subfamily 1 group I member 2; test: Activation of PXR (unknown origin) assessed as induction of CYP3A1 expression up to 30 uM relative to untreated control; type: ADME
Cytochrome P450 2D6 = Cytochrome P450 2D6 (Homo sapiens, UniProt P10635); test: Inhibition of CYP2D6 (unknown origin); type: ADME
Rattus norvegicus [7] = test: Antialzheimer's disease activity in po dosed rat assessed as reduction in Abeta42 level measured after 3 hrs post dose; type: functional, organism-based
[8] = Drug level in rat brain at 10 mg/kg, po measured after 6 hrs post dose; type: ADME, organism-based; set-up: dose 10 mg/kg, route oral; settings: read-out: Drug uptake
[9] = Ratio of drug level in brain to plasma in rat at 10 mg/kg, po measured after 6 hrs post dose; type: ADME, organism-based; set-up: dose 10 mg/kg, route oral; settings: read-out: BPR
Rattus norvegicus [10] = test: Antialzheimer's disease activity in rat assessed as reduction in Abeta42 level at 3 mg/kg, po measured after 3 hrs post dose; type: functional
[11] = molecular target: T1, Nuclear receptor subfamily 1 group I member 2; test: Activation of PXR (unknown origin) assessed as induction of CYP1A1 expression up to 30 uM relative to untreated control; type: ADME

Sequence of hERG (Q12809 whole entry): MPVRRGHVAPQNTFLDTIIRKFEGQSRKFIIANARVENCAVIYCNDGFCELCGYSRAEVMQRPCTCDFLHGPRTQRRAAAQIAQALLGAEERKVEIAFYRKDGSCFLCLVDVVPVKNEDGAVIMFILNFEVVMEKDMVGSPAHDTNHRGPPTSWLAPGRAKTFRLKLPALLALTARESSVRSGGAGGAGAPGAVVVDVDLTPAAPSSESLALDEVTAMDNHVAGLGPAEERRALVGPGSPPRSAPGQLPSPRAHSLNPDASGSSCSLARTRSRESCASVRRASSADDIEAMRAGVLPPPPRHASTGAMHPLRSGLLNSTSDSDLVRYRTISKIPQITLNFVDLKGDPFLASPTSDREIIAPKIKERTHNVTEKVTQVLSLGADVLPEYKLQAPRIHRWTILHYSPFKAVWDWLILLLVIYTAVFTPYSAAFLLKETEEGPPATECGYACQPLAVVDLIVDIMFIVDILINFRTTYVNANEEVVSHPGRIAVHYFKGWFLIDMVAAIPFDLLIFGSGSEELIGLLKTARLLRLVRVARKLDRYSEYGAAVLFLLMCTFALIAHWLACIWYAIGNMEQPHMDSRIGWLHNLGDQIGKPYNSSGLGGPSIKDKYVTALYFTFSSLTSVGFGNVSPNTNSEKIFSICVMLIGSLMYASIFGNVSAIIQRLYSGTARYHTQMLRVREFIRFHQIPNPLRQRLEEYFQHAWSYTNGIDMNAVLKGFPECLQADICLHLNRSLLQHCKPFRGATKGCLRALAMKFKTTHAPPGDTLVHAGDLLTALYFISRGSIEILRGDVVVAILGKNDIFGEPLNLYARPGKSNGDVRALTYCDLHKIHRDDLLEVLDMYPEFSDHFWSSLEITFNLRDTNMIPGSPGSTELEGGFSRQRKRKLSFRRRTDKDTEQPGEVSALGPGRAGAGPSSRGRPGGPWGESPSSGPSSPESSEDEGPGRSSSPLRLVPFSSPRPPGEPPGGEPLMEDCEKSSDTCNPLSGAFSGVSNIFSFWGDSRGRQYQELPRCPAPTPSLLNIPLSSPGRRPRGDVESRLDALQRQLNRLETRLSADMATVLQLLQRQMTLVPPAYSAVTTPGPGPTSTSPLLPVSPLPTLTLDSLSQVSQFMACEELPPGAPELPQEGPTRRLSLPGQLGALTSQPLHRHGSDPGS
Sequence of Cytochrome P450 3A4 (P08684 whole entry): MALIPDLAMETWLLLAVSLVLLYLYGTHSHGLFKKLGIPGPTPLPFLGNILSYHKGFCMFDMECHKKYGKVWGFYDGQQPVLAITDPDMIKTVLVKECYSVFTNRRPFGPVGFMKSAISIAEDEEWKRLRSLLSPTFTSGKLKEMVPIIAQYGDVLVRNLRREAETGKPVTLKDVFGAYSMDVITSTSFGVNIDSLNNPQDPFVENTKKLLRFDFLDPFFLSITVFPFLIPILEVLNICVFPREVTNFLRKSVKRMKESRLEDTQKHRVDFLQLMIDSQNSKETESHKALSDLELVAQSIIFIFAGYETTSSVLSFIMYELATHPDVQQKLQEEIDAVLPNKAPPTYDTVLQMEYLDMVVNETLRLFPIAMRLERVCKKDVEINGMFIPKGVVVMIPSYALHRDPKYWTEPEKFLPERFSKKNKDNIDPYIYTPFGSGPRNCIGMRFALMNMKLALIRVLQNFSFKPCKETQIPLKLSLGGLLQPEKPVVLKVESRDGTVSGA
Sequence of Cytochrome P450 2D6 (P10635 whole entry): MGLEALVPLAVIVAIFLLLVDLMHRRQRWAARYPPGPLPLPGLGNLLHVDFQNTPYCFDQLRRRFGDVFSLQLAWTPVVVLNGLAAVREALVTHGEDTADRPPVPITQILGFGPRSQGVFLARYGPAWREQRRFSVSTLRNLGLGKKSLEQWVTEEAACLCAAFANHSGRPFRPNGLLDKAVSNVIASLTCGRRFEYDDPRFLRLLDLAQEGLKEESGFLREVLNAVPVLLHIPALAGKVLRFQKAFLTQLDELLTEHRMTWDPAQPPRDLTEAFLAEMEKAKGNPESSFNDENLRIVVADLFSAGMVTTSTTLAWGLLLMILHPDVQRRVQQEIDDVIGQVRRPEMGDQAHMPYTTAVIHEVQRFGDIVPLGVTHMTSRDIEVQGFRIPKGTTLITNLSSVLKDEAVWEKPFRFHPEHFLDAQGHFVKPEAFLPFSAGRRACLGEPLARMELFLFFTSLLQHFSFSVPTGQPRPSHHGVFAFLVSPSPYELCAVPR
Sequence of Cytochrome P450 2C9 (P11712 whole entry): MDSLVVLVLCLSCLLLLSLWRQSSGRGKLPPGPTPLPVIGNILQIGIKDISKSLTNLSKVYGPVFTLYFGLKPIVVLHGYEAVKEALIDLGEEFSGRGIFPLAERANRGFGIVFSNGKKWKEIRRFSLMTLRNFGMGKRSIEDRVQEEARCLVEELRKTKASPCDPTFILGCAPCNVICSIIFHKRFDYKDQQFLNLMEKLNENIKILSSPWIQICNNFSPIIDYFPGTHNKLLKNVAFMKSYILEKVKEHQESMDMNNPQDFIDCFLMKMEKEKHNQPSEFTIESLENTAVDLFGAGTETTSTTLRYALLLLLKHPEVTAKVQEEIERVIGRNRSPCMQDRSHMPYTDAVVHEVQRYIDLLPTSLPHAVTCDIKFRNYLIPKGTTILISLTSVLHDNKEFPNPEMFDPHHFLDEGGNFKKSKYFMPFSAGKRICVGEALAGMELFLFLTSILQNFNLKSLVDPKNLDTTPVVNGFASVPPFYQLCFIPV

SMILES	Ratio [2]	IC50 (Gamma-secretase) [nM]	inhibition in vivo at 10 mg/kg (Rattus norvegicus [1]) [%]	inhibition at 10 µM (hERG) [%]	further results
COc1cc(/C=C2\CCCN3CC(c4ccccc4)CON=C23)ccc1-n1cnc(C)c1 (configuration not stated)	140	140	–	–	–
COc1cc(/C=C2\CCCCN3C2=NOC[C@@H]3c2ccc(F)cc2)ccc1-n1cnc(C)c1	35	580	–	–	–
CCCO[C@@H]1CON=C2/C(=C/c3ccc(-n4cnc(C)c4)c(OC)c3)CCCN2[C@H]1c1cc(F)cc(F)c1	16	1260	–	42	–
COc1cc(/C=C2\CCCN3CC(c4ccc(F)cc4)CON=C23)ccc1-n1cnc(C)c1 (configuration not stated)	150	130	–	90	–
COc1cc(/C=C2\CCCN3CCC(c4cc(F)cc(Cl)c4)ON=C23)ccc1-n1cnc(C)c1 (configuration not stated)	262	64	–	61	–
COc1cc(/C=C2\CCCN3C2=NOC[C@@H](O)[C@@H]3c2cc(F)cc(F)c2)ccc1-n1cnc(C)c1	83	240	–	55	–
COc1cc(/C=C2\CCCN3C2=NOC[C@@H]3c2cc(F)c(F)c(F)c2)ccc1-n1cnc(C)c1	607	–	–	–	–
COc1cc(/C=C2\CCCN3C2=NOCC[C@@H]3c2ccc(F)cc2F)ccc1-n1cnc(C)c1	354	52	23	–	–
COc1cc(/C=C2\CCCN3C2=NOCC[C@@H]3c2ccc(Cl)c(F)c2)ccc1-n1cnc(C)c1	210	95	57	–	–
COc1cc(/C=C2\CCCN3CCC(c4cc(F)c(F)c(F)c4)ON=C23)ccc1-n1cnc(C)c1 (configuration not stated)	364	53	–	89	–
COc1cc(/C=C2\CCCCN3C2=NOC[C@@H]3c2cc(F)c(F)c(F)c2)ccc1-n1cnc(C)c1	32	88	–	–	–

Further lines, with some results ahead:

Ratio [2]	IC50 (Gamma-secretase) [nM]	SMILES	inhibition in vivo at 10 mg/kg (Rattus norvegicus [1]) [%]	inhibition at 10 µM (hERG) [%]	further results
466	24	COc1cc(/C=C2\CCCN3C2=NOCC[C@@H]3c2ccc(F)c(F)c2)ccc1-n1cnc(C)c1	48	56	–
392	37	COc1cc(/C=C2\CCCN3C2=NOCC[C@@H]3c2cc(F)cc(F)c2)ccc1-n1cnc(C)c1	39	49	–
489	41	COc1cc(/C=C2\CCCN3CCC(c4ccccc4)ON=C23)ccc1-n1cnc(C)c1 (configuration not stated)	–	93	–
371	41	COc1cc(/C=C2\CCCN3CCC(c4cc(F)cc(F)c4)ON=C23)ccc1-n1cnc(C)c1 (configuration not stated)	–	–	–
510	39	COc1cc(/C=C2\CCCN3C2=NOCC[C@@H]3c2cc(F)c(F)c(F)c2)ccc1-n1cnc(C)c1	61	33	IC50 (Cytochrome P450 2C9): > 30000 nM; IC50 (Cytochrome P450 3A4): > 30000 nM; Activity [3]: 0%; inhibition in vivo at 30 mg/kg (Rattus norvegicus [4]): 78%; AUC at 6 h [5]: 15.8 µM·h; Activity [6]: 0%; IC50 (Cytochrome P450 2D6): > 30000 nM; inhibition (Rattus norvegicus [7]): Dose-dependent effect; concentration at 6 h [8]: 1800 ng/g; Kp at 6 h [9]: 3.2; inhibition in vivo at 3 mg/kg (Rattus norvegicus [10]): 43%; Activity [11]: 2%
480	41	COc1cc(/C=C2\CCCN3C2=NOC(C)CC3c2cc(F)c(F)c(F)c2)ccc1-n1cnc(C)c1 (mixture of isomers)	–	–	–
465	43	COc1cc(/C=C2\CCCN3CCC(c4ccc(F)cc4)ON=C23)ccc1-n1cnc(C)c1 (configuration not stated)	–	93	–
480	16	COc1cc(/C=C2\CCCN3C2=NOCC[C@@H]3c2cc(F)cc(Cl)c2)ccc1-n1cnc(C)c1	59	53	–
409	49	COc1cc(/C=C2\CCCN3C2=NOCC[C@@H]3c2ccc(F)cc2)ccc1-n1cnc(C)c1	40	81	–
340	40	COc1cc(/C=C2\CCCN3C2=NOCC[C@@H]3c2ccc(F)c(Cl)c2)ccc1-n1cnc(C)c1	38	39	–
572	35	COc1cc(/C=C2\CCCN3C2=NOCC[C@@H]3c2cccc(F)c2)ccc1-n1cnc(C)c1	–	86	–
